Earlier results, collected in patent publication US20090291152A1, “DIBENZOTHIAZEPINE DERIVATIVES” (Concert Pharmaceuticals Inc., priority 2006, published 2009).

Assays:
[1] = majority of the metabolites
[2] = patients with hepatic impairment

metabolites excreted in the urine [1]: 73%
increase in AUC [2]: 3 fold
increase in Cmax [2]: 3 fold
SMILES: OCCOCCN1CCN(C2=Nc3ccccc3Sc3ccccc32)CC1 [quetiapine, 11-[4-[2-(2-Hydroxyethoxy)ethyl]piperazin-1-yl]dibenzo[b,f][1,4]thiazepine]
